Values after ≈ are worked out from the molar mass of the structure shown. Where a SMILES comes first, the peptide text is derived from it. [ ]: non-standard residue; d: D form. Nleu = CC(C)CNCC(=O)O; Nlys = NCCCCNCC(=O)O
Legend:
[1] = system: A. baumannii ATCC19606
Method: (§1) Antimicrobial activity was assayed for all the peptide–peptoids against P. aeruginosa PAO1, K. pneumoniae NCTC418, E. coli W3110, A. baumannii ATCC 19606, methicillin-resistant S. aureus COL (MRSA), and for selected peptides on P. aeruginosa PA14 and the polymyxin-B-resistant derivatives PA14 4.13, PA14 4.18, PA14 2P4, as well as the clinical isolates ZEM-1A and ZEM9A, K. pneumoniae OXA-48, S. aureus Newman, Enterobacter cloacae, Stenotrophomonas maltophilia, Burkholderia cenocepacia, and Staphylococus epidermidis. To determine the Minimal Inhibitory Concentration (MIC), the Broth Microdilution method was used.[72] A colony of bacteria was picked and grown in LB medium overnight at 37 °C.
(§2) To each well was finally added 4 μL of the diluted bacterial suspension (see above), corresponding to approximately 5 × 10^5 CFU. For each test, two columns of the plate were kept for sterility control (medium only), growth control (medium with bacterial inoculum, no compound). The positive control, Polymyxin B (starting with a concentration of 16 μg/mL) in MH medium with bacterial inocula, was introduced in the two lines of the plate. The plates were incubated at 37 °C for ca. 18 h under static conditions. Next, 15 μL of 3-(4,5-dimethylthiazol-2-yl)-2,5-diphenyltetrazolium bromide (MTT)[73] (1 mg/mL in sterilized MilliQ deionized water) were added to each well, and the plates were incubated for 20–30 min at room temperature. The minimal inhibitory concentration (MIC) was defined as the lowest concentration of the compound that inhibits the visible growth of the tested bacteria (yellow) with the unaided eye.

[2] = system: E. coli W3110
Method: as §1, §2

[3] = system: K. pneumoniae NCTC418
Method: as §1, §2

[4] = system: P. aeruginosa PAO1
Method: as §1, §2

[5] = system: PA14 2P4 (pmrB); conditions: CSV; […] MH at pH 8.5
Method: as §1, §2

[6] = system: PA14 4.13 (phoQ); conditions: CSV; […] MH at pH 8.5
Method: as §1, §2

[7] = system: PA14 4.18 (pmrB); conditions: CSV; […] MH at pH 8.5
Method: as §1, §2

[8] = system: S. aureus COL (MRSA)
Method: as §1, §2

[9] = system: human red blood cells (hRBC); test: Minimum hemolytic concentration (MHC); assay type: cell-based
Excerpt: We also measured minimal hemolysis concentrations (MHC) on human red blood cells by serial 2-fold dilution as an indication of toxicity against eukaryotic cells (Table 1).

[10] = Circular dichroism, α-helical content; assay type: physicochemical; conditions: 0.1 mg/mL; for CD %α with 5 mM DPC: 10 mM phosphate buffer pH 7.4, 5 mM DPC; for CD %α with 20% TFE: 10 mM phosphate buffer pH 7.4, 20% TFE
[11] = system: P. aeruginosa PA14; conditions: Table S3; […] MH at pH 8.5, 16-20 hours at 37 °C
Method: as §1
as §2, with “The plates were incubated at 37 °C for ca. 18 h under static conditions.” left out

[12] = system: S. aureus Newman; conditions: Table S3; […] MH at pH 8.5
Method: as §1
as §2, with “The plates were incubated at 37 °C for ca. 18 h under static conditions.” left out

[13] = Lipid vesicle leakage assay; conditions: 10 mM TRIS, 107 mM NaCl, pH 7.4
Method: (c) Vesicle leakage assay for a selection of compounds.
EYPG - EB11 1 EYPC - EB11
Figure S2: Vesicle leakage experiments using 5(6)-carboxyfluorescein induced by peptides. EYPG and EYPC
compound was added after 45 sec. After 240 seconds, 30 µL Triton X-100 1.2% was added for full release of […]

SMILES: CC(C)C[C@H](NC(=O)CN(CC(C)C)C(=O)[C@H](CCCCN)NC(=O)CNCCCCN)C(=O)N(CCCCN)CC(=O)N[C@@H](CC(C)C)C(=O)N(CC(=O)N[C@@H](CCCCN)C(=O)N(CC(=O)N[C@@H](CC(C)C)C(=O)N(CC(N)=O)CC(C)C)CC(C)C)CC(C)C [EB10, kKlLkLlKlLl] (H-[Nlys]K[Nleu]L[Nlys]L[Nleu]K[Nleu]L[Nleu]-NH2)
- MIC A. baumannii ATCC19606, full MH at pH 7.4 ([1]; ATCC19606, 4 h, pH 7.4): >32 ug/mL
- MIC A. baumannii ATCC19606, full MH at pH 8.5 ([1]; ATCC19606, 4 h, pH 8.5): >32 ug/mL
- MIC A. baumannii ATCC19606 […] 7.4 ([1]; Table S2, […] MH, pH 7.4): 16 µg/mL (≈ 12.1 µM)
- MIC A. baumannii ATCC19606 Full MH 7.4 ([1]; Table S2, full MH, pH 7.4): > 32 µg/mL
- MIC A. baumannii ATCC19606 Full MH 8.5 ([1]; Table S2, full MH, pH 8.5): > 32 µg/mL
- MIC E. coli W3110, […] MH at pH 8.5 ([2]; CSV, […] MH at pH 8.5): 3 ug/mL
- MIC E. coli W3110, full MH at pH 7.4 ([2]; CSV, full MH at pH 7.4): >32 ug/mL
- MIC E. coli W3110 […] 7.4 ([2]; Table S2, […] MH, pH 7.4): 2 µg/mL (≈ 1.51 µM)
- MIC E. coli W3110 […] 8.5 ([2]; Table S2, […] MH, pH 8.5): 2 to 4 µg/mL
- MIC E. coli W3110 Full MH 7.4 ([2]; Table S2, full MH, pH 7.4): > 32 µg/mL
- MIC E. coli W3110 Full MH 8.5 ([2]; Table S2, full MH, pH 8.5): 32 µg/mL (≈ 24.2 µM)
- MIC E. coli W3110 […] ([2]; diluted MH ([…] MH, pH 8.5) per Table 1 footnote b, 16–20 h at 37 °C): 2 to 4 µg/mL
- MIC K. pneumoniae NCTC418, full MH at pH 7.4 ([3]; NCTC418, 4 h, pH 7.4): >32 ug/mL
- MIC K. pneumoniae NCTC418, full MH at pH 8.5 ([3]; NCTC418, 4 h, pH 8.5): >32 ug/mL
- MIC K. pneumoniae NCTC418 […] 7.4 ([3]; Table S2, […] MH, pH 7.4): > 32 µg/mL
- MIC K. pneumoniae NCTC418 […] 8.5 ([3]; Table S2, […] MH, pH 8.5): 32 µg/mL (≈ 24.2 µM)
- MIC K. pneumoniae NCTC418 Full MH 7.4 ([3]; Table S2, full MH, pH 7.4): > 32 µg/mL
- MIC K. pneumoniae NCTC418 Full MH 8.5 ([3]; Table S2, full MH, pH 8.5): > 32 µg/mL
- MIC P. aeruginosa PAO1, full MH at pH 7.4 ([4]; PAO1, 4 h, pH 7.4): >32 ug/mL
- MIC P. aeruginosa PAO1, full MH at pH 8.5 ([4]; PAO1, 4 h, pH 8.5): >32 ug/mL
- MIC P. aeruginosa PAO1 […] 7.4 ([4]; Table S2, […] MH, pH 7.4): 4 µg/mL (≈ 3.03 µM)
- MIC P. aeruginosa PAO1 […] 8.5 ([4]; Table S2, […] MH, pH 8.5): 4 µg/mL (≈ 3.03 µM)
- MIC P. aeruginosa PAO1 Full MH 7.4 ([4]; Table S2, full MH, pH 7.4): > 32 µg/mL
- MIC P. aeruginosa PAO1 Full MH 8.5 ([4]; Table S2, full MH, pH 8.5): > 32 µg/mL
- MIC P. aeruginosa PA14 2P4, […] MH at pH 8.5 [5]: 8 ug/mL
- MIC P. aeruginosa PA14 4.13, […] MH at pH 8.5 [6]: 4 ug/mL
- MIC P. aeruginosa PA14 4.18, […] MH at pH 8.5 [7]: 8 ug/mL
- MIC S. aureus COL (MRSA), full MH at pH 7.4 ([8]; COL, 4 h, pH 7.4): >32 ug/mL
- MIC S. aureus COL (MRSA) […] 7.4 ([8]; Table S2, […] MH, pH 7.4): 32 µg/mL (≈ 24.2 µM)
- MIC S. aureus COL (MRSA) […] 8.5 ([8]; Table S2, […] MH, pH 8.5): 8 µg/mL (≈ 6.05 µM)
- MIC S. aureus COL (MRSA) Full MH 7.4 ([8]; Table S2, full MH, pH 7.4): > 32 µg/mL
- MIC S. aureus COL (MRSA) Full MH 8.5 ([8]; Table S2, full MH, pH 8.5): 32 µg/mL (≈ 24.2 µM)
- Hemolysis [9]: none of them showed any measurable hemolysis
- MHC [9]: >2000 µg/mL
- CD %α with 5 mM DPC ([10]; DichroWeb, Contin-LL): 11/11%
- CD %α with 20% TFE ([10]; DichroWeb, Contin-LL): 11/11%
- CD %α with 5 mM DPC ([10]; Table S2): 11%
- CD %α with 20% TFE ([10]; Table S2): 11%
- MIC P. aeruginosa PA14 [11]: 4 µg/mL (≈ 3.03 µM)
- MIC S. aureus Newman [12]: 8 µg/mL (≈ 6.05 µM)
- Vesicle leakage activity on EYPC vesicles ([13]; egg yolk phosphatidyl choline vesicles): no activity
- Vesicle leakage activity on EYPG vesicles ([13]; fluorescein-loaded anionic EYPG vesicles): weak or no vesicle leakage activity

— paper PMC10714400, “Antimicrobial Peptide–Peptoid Hybrids with and without Membrane Disruption” (ACS Infectious Diseases, 2023)
